# Test results published in patent US20090176711A1, “INHIBITORS OF AMYLOID PRECURSOR PROTEIN PROCESSING” (priority 2008, published 2009).
# Entries after “also recorded” stand apart in the source; their conditions may differ. Non-standard residues stand in square brackets, D forms with d. No end group written: not given here. *: point of attachment. Biotin = O=C1N[C@H]2[C@H](CS[C@H]2CCCCC(=O)*)N1; Dnp = O=[N+]([O-])c1ccc(*)c([N+](=O)[O-])c1; Mca = COc1ccc2c(CC(=O)*)cc(=O)oc2c1; Ahx = NCCCCCC(=O)O
# T1: f-Sub M (7-methoxycoumarin-4-acetyl-SEVNLDAEFRK(Dnp)-RR-NH2)
# T1 peptide: Mca-SEVNLDAEFRK(Dnp)RR-NH2
# T2: N-terminally biotinylated Substrate W
# T2 construct: also called bio-Sub W; Sub W
# T2 peptide: Biotin-SEVKMDAEFR
# T3: Sub-ST6Ga11
# T3 peptide: DYEALTLQAKEFQMPKSQE
# T4: Substrate M (non-labeled)
# T4 peptide: SEVNLDAEFR
# Legend:
# [1] = system: Substrate M (Sub M, SEVNLDAEFR; β-secretase cleavage site of APPsw); experiment: Binding of biotin-labeled Substrate M to immobilized complementary (HC) peptides; conditions: for binding activity for Sub M: HC peptides chemically coupled to plate, bio-Sub M
# Procedure: (§1) Complementary peptides (0.2, 2, 20, and 200 μM) were dissolved in phosphate buffered saline (PBS) (pH 7.4) and fixed to microtiter wells for 5 hr at 37° C. The wells were blocked with blocking buffer (3% BSA/PBS) for 1 hr at 37° C. Either N-terminally biotinylated Substrate W or M (20 μM) in blocking buffer was added and incubated for overnight at 4° C. Streptavidin-horseradish peroxidase in blocking buffer was added to detect resulting bound substrates. The plate was incubated for 2 hr at room temperature (RT), followed by addition of 3,3′,5,5′-tetramethyl-benzidine (TMB) as substrate for horseradish peroxidase for color reaction.
# (§2) Reacti-Bind™ maleic anhydride-activated polystyrene plate (Pierce, IL, USA) was coated with 50 μl of HC peptide (200 μM in distilled water) by chemical coupling for 3 h at room temperature (RT) and washed three times with phosphate buffered saline (PBS) containing 0.05% tween 20 (PBST). The plate was blocked with blocking buffer (0.5% gelatin in PBS) for 1 h at RT. After discarding blocking buffer, biotinylated BACE1 substrates (200 μM) in blocking buffer was applied on the plate and incubated for 2.5 h at RT. Each well was washed three times with PBST. The bound biotinylated BACE1 substrates were detected by incubation with streptavidin-horseradish peroxidase (Str-HRP, 125 mU/ml in blocking buffer) for 2 h at RT. Color reaction was carried out with 50 μl of 3,3′,5,5′-Tetramethylbenzidine Liquid Substrate (Sigma-Aldrich, MO, USA). After stopping the reaction by addition of an equal volume of 1 N HCl, absorbance at 450 nm was read in an automated ELISA reader (EL 312e, Bio-Tek Instruments, VT, USA). All assays were carried out in duplicate.
# [2] = system: cleavage of Substrate M by β-secretase; experiment: Inhibition of cleavage of Substrate M by β-secretase by complementary and deletion peptides (Examples 1, 5, 6; assay format not stated); assay type: biochemical; conditions: for inhibition of cleavage of Substrate M by β-secretase: FIG. 4; for inhibitory activity of deletion peptides on cleavage of Substrate M: 10 inhibitor/substrate ratio, Substrate M 50 μM; for concentration dependent inhibitory activity, activity group: various concentrations, Substrate M (FIG. 8)
# Procedure: So far we have focused on c-Sub M peptide. Serial deletions were made from N-terminus or C-terminus of c-Sub M (FIG. 5), and we investigated effect of the deletions on the cleavage of Substrate M. The optimum peptide/substrate ratio for inhibition on the cleavage of substrate was determined by observing the inhibition percentage at various peptide/substrate ratios (FIG. 4). Subsequently, the inhibitory activity of the deletion peptides were tested at 10 inhibitor/substrate ratio and the concentration of the Substrate M was 50 μM. Deletion of the first two amino acids from the N-terminus had little effect on the activity and deletion of five amino acids from the C-terminus of c-Sub M had little effect on the inhibitory activity (FIG. 6). Further deleted peptides were tested for inhibitory activity on the cleavage of Substrate M (FIG. 7).
# The above-mentioned peptides that have inhibitory activity were tested at various concentrations for their inhibitory activities on their mutant substrate Substrate M (FIG. 8).
# [3] = system: APP processing in HEK293-APP cells; experiment: APP inhibitor activity on HEK293-APP cells (βCTF Western blot); assay type: cell-based, human; conditions: γ-secretase inhibitor and cholesterol added
# Procedure: In the neuronal cells of the brain, APP is processed by α-secretase or β-secretase. To investigate the effects of the inhibitors on the cell, a cell based assay system was developed as described in FIG. 10. C-terminal fragment of APP remaining on the cell membrane was detected by Western blot. The resulting C-terminal fragments, αCTF or βCTF are further processed by γ-secretase. However, if the cells are treated with the γ-secretase inhibitor, this processing is blocked. As a result, αCTF or βCTF accumulate in the cell. If β-secretase inhibitor or APP inhibitor is added, this processing is blocked and βCTF disappears.
# In addition, γ-secretase inhibitor and cholesterol were added to the cells to increase βCTF level. Commercially available peptide-based β-secretase inhibitor was included as control (Lane 6, FIG. 11). To detect the N-terminal fragment of β-amyloid which is a product of APP processing, 6E10 antibody was employed. […] Recently, it has been reported that the commercially available peptide-based inhibitor had to be linked to an oligoarginine transporter peptide to have inhibitory activity against cells. Therefore, mimetic approach is adopted to produce cell permeable analogs. (Chang et al. J. Neurochemistry 2004; 89:1409-1416).
# After confirming the ability of the oligo-arginine coupled APP inhibitors to enter the cells, the inhibitors were applied to HEK293-APP cells overexpressing APP to test their inhibitory activities on APP processing. […] This inhibitor started to show significant inhibitory activity beginning from 0.1 μM (lower panel).
# [4] = biological target: T5, Substrate W (Sub W, SEVKMDAEFR; β-secretase cleavage site of wild type APP) (Homo sapiens, UniProt P05067); experiment: Binding of biotin-labeled Substrate W to immobilized complementary (HC) peptides; conditions: complementary peptide immobilized, biotin-labeled Substrate W
# T5 construct: […]; purchased Peptron, Inc; host or cells: chemical synthesis
# Procedure: as §1
# In particular, for Substrate W, complementary peptides (200 μM) dissolved in phosphate buffered saline (PBS) (pH 7.4) were chemically coupled to Reacti-Bind Maleic Anhydride Activated Polystyrene wells (Pierce Biotechnology, Inc.) for overnight at room temperature (RT). Remaining active sites of the plate were inactivated by adding ethanolamine (1 M) for 1 hr at RT. The wells were blocked with blocking buffer (3% BSA/PBS) for 1 hr at RT. N-terminally biotinylated Substrate W (20 μM) in blocking buffer was added and incubated for 3 hr at RT. Streptavidin-horseradish peroxidase in blocking buffer was added to detect resulting bound substrates. The plate was incubated for 2 hr at room temperature (RT), followed by addition of 3,3′,5,5′-tetramethyl-benzidine (TMB) as substrate for horseradish peroxidase for color reaction.
# as §2
# [5] = system: cleavage of F-Substrate M (f-Sub M) by rhBACE1; experiment: Fluorometric (FRET) assay for cleavage of F-Substrate M by rhBACE; assay type: biochemical, human; conditions: for inhibitory activity for cleavage of f-Sub M by rhBACE1: f-Sub M 10 μM
# Source text: This assay system utilizes fluorescence resonance energy transfer (FRET) technology. Substrate M was synthesized with two fluorophores, a fluorescent donor and a proprietary quenching acceptor (purchased from a commercial source, R&D Systems). […] Upon cleavage of substrate by β-secretase, the fluorophore is separated from the quenching group, restoring the full fluorescence yield of donor.
# Substrate labeled with fluorophores will be called F-Substrate M (R&D Systems). Recombinant human β-secretase will be called rhBACE (recombinant human β-site APP cleavage enzyme) (purchased from R&D systems).
# F-Substrate M (20 μM) was preincubated with varying concentrations of complementary peptides in assay buffer (0.1 M NaOAc, pH 4.0) for 1 hr at RT. rhBACE (70 nM) in assay buffer was added. Cleavage by rhBACE was detected by reading emitted fluorescence level.
# In this assay system, fluorescence resonance energy transfer (FRET) technology was utilized. Swedish mutant APP substrate (f-Sub M) with a fluorescent donor and a proprietary quenching acceptor (7-methoxycoumarin-4-acetyl-SEVNLDAEFRK(Dnp)-RR-NH2) was purchased from R&D systems, Inc (MN, USA). […] Upon cleavage of substrate by rhBACE1 (R&D Systems, Inc., MN, USA), the fluorescence donor is separated from the quenching group, restoring the full fluorescence yield of the donor. f-Sub M (10 μM) was pre-incubated with HC peptide in assay buffer (0.1 M NaOAc, pH 4.0) for 2 h at RT. After pre-incubation, substrate and HC peptide mixture in assay buffer was transferred to FluoroNunc™ 96 well white plate (Nunc, Roskilde, Denmark), and rhBACE1 (70 nM) was added. Time-dependent emission of fluorescence (excitation at 320 nm, emission at 405 nm) was monitored in a Molecular Devices SpectraMax Gemini EM fluorescence reader (CA, USA) for 1 h at 37° C. All assays were carried out in duplicate.
# [6] = biological target: T1, f-Sub M …; experiment: cell-based or functional assay
# [7] = biological target: T2, N-terminally biotinylated Substrate W; experiment: plate assay: HC peptide chemically coupled to wells, bio-Sub W, streptavidin-HRP (FIG. 27)
# Procedure: as §2
# Thereafter, it was investigated if the c-Sub M and the deletions series bind to wild type Sub W. The results will give us important information on possibility of inhibition of wild type of APP cleavage in cells by the HC peptides derived from Sub M in view of the poor cleavage of Sub W by rhBACE1 in vitro. […] Thus, there is possibility that the HC peptides for Sub M (c-Sub M series) or its peptidomimetics will inhibit the cleavage of wild type APP by BACE1 in cells.
# [8] = biological target: T3, Sub-ST6Ga11; experiment: cell-based or functional assay
# [9] = biological target: T4, Substrate M (non-labeled); experiment: cell-based or functional assay
molecule,measurement,setting,value
RLHLDLRLKA [Sub M-c],binding to Substrate M,"[1]; complementary peptide immobilized, biotin-labeled Substrate M",do not bind
same,inhibition of cleavage of Substrate M by β-secretase,[2],do not inhibit cleavage
SEFCIQIHF [c-Sub M ΔC1],binding activity for Sub M,[1],relatively high binding activity
"SEFC (also: cyclic, mode of cyclisation not given here) [c-Sub MΔC6]",absorbance in binding test,[1]; substrate not specified,high absorbance
same,inhibitory activity on APP processing (βCTF),[3],none of the inhibitors tested showed inhibitory activity
RLHFYLRLKA [Sub W-c],binding to Substrate W,[4],do not bind
same,inhibition of cleavage of Substrate M by β-secretase,[2],do not inhibit cleavage
"CIQIHF (also: cyclic, mode of cyclisation not given here) [c-Sub M ΔN3C1]",inhibitory activity for cleavage of f-Sub M by rhBACE1,"[5]; N-terminal deletions of c-Sub M ΔC1, HC peptide 0.5 mM",maintains much of the original activity of c-Sub M; also recorded: without sacrificing the inhibitory activity too much
same,inhibitory activity relative to c-Sub M ΔN1C1,[5]; substrate concentration 10 μM,about one tenth
same,inhibitory activity of deletion peptides on cleavage of Substrate M,[2],considerable inhibitory activity
same,"concentration dependent inhibitory activity, activity group",[2],less activity
"SEFCIQI (also: cyclic, mode of cyclisation not given here) [c-SubM ΔC3]","concentration dependent inhibitory activity, activity group",[2],most active group
"SEFCI (also: cyclic, mode of cyclisation not given here) [c-SubM ΔC5]","concentration dependent inhibitory activity, activity group",[2],medium activity
CIQI [C-Sub MΔN3C3],inhibitory activity of deletion peptides on cleavage of Substrate M,[2],considerable inhibitory activity
same,"concentration dependent inhibitory activity, activity group",[2],medium activity
"SEFCIHLHFR (also: cyclic, mode of cyclisation not given here) [c-Sub W]",binding activity for Sub M,[1],weak but significant binding
same,binding to Substrate W,[4],bind
same,inhibitory activity for cleavage of f-Sub M by rhBACE1,[5]; HC peptide 1 mM,higher inhibitory activity
same,inhibition of cleavage of Substrate M by β-secretase,[2],inhibit cleavage
same,"concentration dependent inhibitory activity, activity group",[2],medium activity
SEFCIQ-NH2 [c-Sub M ΔC4],"inhibitory activity for the cleavage of f-Sub M by rhBACE1 (FRET; HC peptide 1 mM, f-Sub M 10 µM)",[6],> 90%
SEFCIQIH-NH2 [c-Sub M ΔC2],"inhibitory activity for the cleavage of f-Sub M by rhBACE1 (FRET; HC peptide 1 mM, f-Sub M 10 µM)",[6],44%
SEFCI-NH2 [c-Sub M ΔC5],"inhibitory activity for the cleavage of f-Sub M by rhBACE1 (FRET; HC peptide 1 mM, f-Sub M 10 µM)",[6],> 90%
CIQIHF-NH2 (also called c-Sub M ΔC1N3; c-Sub ΔN3C1) [c-Sub M ΔN3C1],"inhibitory activity relative to c-Sub M ΔN1C1, f-Sub M (10 µM) cleavage by rhBACE1 (FRET)",[6],~0.1 fold of c-Sub M ΔN1C1
same,binding result,[7],binds
EFCIQIHF-NH2 (also called one amino acid deletion from N-terminal of c-Sub M ΔC1) [c-Sub M ΔN1C1],"inhibition of the cleavage of Sub-ST6Ga11 by rhBACE1 (HPLC), inhibitor/substrate ratio 20",[8],40%
same,"inhibition of the cleavage of Sub-ST6Ga11 by rhBACE1 (HPLC), up to 10 inhibitor/substrate ratio",[8],~10%
same,"inhibition of the cleavage of Sub M by rhBACE1 (HPLC), inhibitor/substrate ratio 20",[9],100%
same,"inhibition of the cleavage of Sub M by rhBACE1 (HPLC), up to 10 inhibitor/substrate ratio",[9],60%
same,IC50 of inhibition of f-Sub M (10 µM) cleavage by rhBACE1 (FRET),[6],15 µM
same,fold binding to Sub W relative to c-Sub W,[7],2.5 fold
SEFCIQI-NH2 [c-Sub M ΔC3],"inhibitory activity for the cleavage of f-Sub M by rhBACE1 (FRET; HC peptide 1 mM, f-Sub M 10 µM)",[6],> 90%
[Ahx]CIQIHF-NH2 (N-terminus assumed; SMILES CC[C@H](C)[C@H](NC(=O)[C@H](CCC(N)=O)NC(=O)[C@@H](NC(=O)[C@H](CS)NC(=O)CCCCCN)[C@@H](C)CC)C(=O)N[C@@H](Cc1c[nH]cn1)C(=O)N[C@@H](Cc1ccccc1)C(N)=O) [6-aminohexanoic acid-c-Sub M ΔN3C1],in vitro inhibitory activity on cleavage of f-Sub M by rhBACE1 relative to c-Sub M ΔN3C1 (FRET),[6],~0.5 fold of c-Sub M ΔN3C1
FCIQIHF-NH2 (also called FCIQIHF) [c-Sub M ΔN2C1],"percent of ST6Ga11 peptide cleavage by β-secretase blocked (HPLC), 25-fold inhibitor",[8],25%
same,"percent of Sub M cleavage by β-secretase blocked (HPLC), 25-fold inhibitor",[9],~60%
same,binding result,[7],binds
